Some targets named below: A31 (A*3101) (Homo sapiens, UniProt P04439, A270S/D185E/E176V/E277Q/F33T/G231S/G80R/H175R/I121M/I218V/I322F/K168Q/L300P/L318F/M331R/P217A/Q94H/R138Q/T323A/T345S/T97I/V358M); A*3301 (Homo sapiens, UniProt P04439, A270S/D185E/E176V/E277Q/E87N/F33T/G231S/H175R/I121M/I218V/I322F/K168Q/K210R/L300P/L318F/M331R/P217A/Q86R/Q94H/R138Q/T323A/T345S/T97I/V358M/Y195H); HLA-A*0201 (HLA-A2.1) (Homo sapiens, UniProt P04439, D140Y/D185E/D98H/E176V/E277Q/G131W/G231S/I119V/I121R/I166T/I218V/L300P/L318F/N151K/N90K/P208A/P217A/Q86G/Q94H/R138H/R169H/T345S).

Experiment in all cases: biochemical
What all share (format): binding

In another assay the target is HLA-A3.2 (A*0301) (Homo sapiens, UniProt P04439). Particulars: for A3.2: Table 164, MAGE peptides, binding value to HLA-A3.2, no unit given.
For another assay, the target named is HLA-A11 (A*1101) (Homo sapiens, UniProt P04439, A114D/D185E/E176A/F33Y/L180Q/S129P/T187R). Also noted: A11: unit not given here.

Residues, ends and D or L forms follow the SMILES beside them. No end group written: not given here.

As a reminder, the IC50 is the concentration needed to halve the response being measured.

With ISKQPLPQTR [Peptide 9017.0207], the half-inhibitory concentration (IC50) at HLA-A3.2 (A*0301) was above 20 µM; against HLA-A11 (A*1101) it was above 20 µM; against A31 (A*3101), 0.083 µM; against A*3301, 2.58 µM.

For the molecule VVYRLVWDK [Peptide 1589.38], the 50% inhibitory concentration (IC50) against HLA-A3.2 (A*0301) is 0.063 µM; against HLA-A11 (A*1101), 0.013 µM; against A31 (A*3101), 0.989 µM; on A*3301 it was 3.78 µM.

For the molecule WFFVETIVEK [Peptide 88.0171], the IC50 at HLA-A3.2 (A*0301) is 13.7 µM; against HLA-A11 (A*1101), 1.48 µM; on A31 (A*3101), 18.3 µM; on A*3301, 0.201 µM.

As for VVPALSVSK [Peptide 1589.14], the IC50 is 0.515 µM against HLA-A3.2 (A*0301), 0.033 µM against HLA-A11 (A*1101), above 20 µM on A31 (A*3101) and above 20 µM on A*3301.

With GLYYIHGNEK [Peptide 1589.40], the IC50 at HLA-A3.2 (A*0301) amounted to 0.017 µM; at HLA-A11 (A*1101), 0.018 µM; against A31 (A*3101) it was 0.141 µM; at A*3301 it was 4.51 µM.

For the molecule RLIDRIRER [Peptide 9017.0123], the IC50 is 0.036 µM against HLA-A3.2 (A*0301), 0.137 µM at HLA-A11 (A*1101), 0.0046 µM on A31 (A*3101) and 0.937 µM at A*3301.

For TVRHKKLMFK [Peptide 1556.79], the IC50 at HLA-A3.2 (A*0301) was 0.44 µM; against HLA-A11 (A*1101) it was 0.188 µM; against A31 (A*3101) it was 5.1 µM; on A*3301, 11.8 µM.

VSIEWRKRR [Peptide 9017.0090]: the IC50 against HLA-A3.2 (A*0301) came out at 2.65 µM; against HLA-A11 (A*1101), 0.077 µM; at A31 (A*3101) it was 0.0092 µM; on A*3301, 0.058 µM.

In the case of STWHWTSDDK [Peptide 1589.43], the IC50 is 0.342 µM on HLA-A3.2 (A*0301), 0.047 µM against HLA-A11 (A*1101), 5.3 µM against A31 (A*3101) and above 20 µM at A*3301.

Consider QLALEALNK [Peptide 88.0424], for which the IC50 at HLA-A3.2 (A*0301) was 0.166 µM; against HLA-A11 (A*1101) it was 0.155 µM; against A31 (A*3101), above 20 µM; at A*3301, above 20 µM.

Consider SVRKLVEDR [Peptide 9017.0105], for which the IC50 against HLA-A3.2 (A*0301) was 5.1 µM; at HLA-A11 (A*1101), 1.14 µM; against A31 (A*3101), 0.015 µM; on A*3301, 0.187 µM.

On to AAEGVGAVSR [Peptide 9017.0188], for which the IC50 on HLA-A3.2 (A*0301) came out at 16 µM; at HLA-A11 (A*1101), 0.992 µM; against A31 (A*3101), 2.68 µM; against A*3301, 4.12 µM.

For KSLFGMSLMK [Peptide 1587.13], the IC50 against HLA-A3.2 (A*0301) was 0.0044 µM; against HLA-A11 (A*1101), 0.0015 µM; against A31 (A*3101) it was 0.271 µM; at A*3301 it was above 20 µM.

In the case of QQRSLTEILK [Peptide 9012.0218], the IC50 on HLA-A3.2 (A*0301) is 0.52 µM; at HLA-A11 (A*1101), 0.093 µM; against A*3301, above 20 µM.

In the case of VVFGILIKRK [Peptide 9012.0246], the IC50 is 0.054 µM against HLA-A3.2 (A*0301), 0.013 µM against HLA-A11 (A*1101), 2.6 µM against A31 (A*3101) and 10.1 µM against A*3301.

Take WTLELLEELK [Peptide 9017.0238]: the IC50 at HLA-A3.2 (A*0301) was above 20 µM; against HLA-A11 (A*1101), 3.84 µM; against A31 (A*3101), 17.2 µM; against A*3301 it was above 20 µM.

Consider `CC[C@H](C)[C@H](NC(=O)[C@H](CS)NC(=O)[C@H](CCCNC(=N)N)NC(=O)[C@@H](NC(=O)[C@@H](N)CC(C)C)[C@@H](C)CC)C(=O)N[C@H](C(=O)N[C@@H](CS)C(=O)N[C@@H](CCC(N)=O)C(=O)N[C@@H](CCCCN)C(=O)O)[C@@H](C)CC` [Peptide 88.0298] (H-LIRCIICQK-OH), for which the IC50 against HLA-A3.2 (A*0301) was 0.445 µM; against HLA-A11 (A*1101) it was 0.252 µM; on A31 (A*3101), 0.639 µM; at A*3301 it was 0.834 µM.

With SQTCALYWFR [Peptide 88.0165], the IC50 against HLA-A3.2 (A*0301) turned out to be 4.85 µM; at HLA-A11 (A*1101), 1.83 µM; against A*3301, 0.26 µM.

Take ALTALITPKK [Peptide 9017.0230]: the IC50 was 0.044 µM at HLA-A3.2 (A*0301), 0.0068 µM against HLA-A11 (A*1101), 7.41 µM against A31 (A*3101) and above 20 µM on A*3301.

Consider VLCGPPNTGK [Peptide 88.0189], for which the IC50 against HLA-A3.2 (A*0301) was 0.141 µM; against HLA-A11 (A*1101), 0.22 µM; on A31 (A*3101), 0.37 µM; on A*3301, above 20 µM.

Consider KVCSGVDYR [Peptide 1589.35], for which the IC50 against HLA-A3.2 (A*0301) is above 20 µM; against HLA-A11 (A*1101), 5.17 µM; on A*3301 it was 5.78 µM.

Take FTDLTIVYR [Peptide 78.0313]: the half-inhibitory concentration (IC50) against HLA-A3.2 (A*0301) was above 20 µM; against HLA-A11 (A*1101), 2.66 µM; against A31 (A*3101), 0.602 µM; at A*3301 it was 0.585 µM.

Consider TVDVYMIMVK [Peptide 9012.0257], for which the IC50 is 11.1 µM against HLA-A3.2 (A*0301), 0.095 µM against HLA-A11 (A*1101), above 20 µM at A31 (A*3101) and above 20 µM against A*3301.

On to SLARRHIAR [Peptide 9017.0067], for which the IC50 is 0.066 µM against HLA-A3.2 (A*0301), 1.1 µM against HLA-A11 (A*1101), 0.0015 µM on A31 (A*3101) and 0.03 µM at A*3301.

For the molecule VVCTYSPALNK [Peptide 1556.35], the IC50 against HLA-A3.2 (A*0301) was 0.37 µM; against HLA-A11 (A*1101), 0.104 µM; on A31 (A*3101), 5.19 µM; against A*3301, above 20 µM.

As for GVSIEWRQR [Peptide 9017.0087], the IC50 stood at 13.1 µM at HLA-A3.2 (A*0301), 1.22 µM against HLA-A11 (A*1101), 0.335 µM on A31 (A*3101) and 2.09 µM on A*3301.

Take ALTALITPK [Peptide 9017.0099]: the IC50 at HLA-A3.2 (A*0301) amounted to 0.017 µM; against HLA-A11 (A*1101) it was 0.016 µM; on A31 (A*3101), 0.439 µM.

As for LQQTSLEMWR [Peptide 88.0228], the IC50 against HLA-A3.2 (A*0301) was 13.1 µM; at HLA-A11 (A*1101) it was 0.445 µM; against A*3301, above 20 µM.

For KQMSMSQWIK [Peptide 1587.09], the figures for the IC50 against HLA-A3.2 (A*0301), against HLA-A11 (A*1101) and at A31 (A*3101) were 0.049 µM, 0.017 µM and 0.05 µM, respectively.

As to TVWNPPTTAK [Peptide 1556.03], the IC50 at HLA-A3.2 (A*0301) was determined as 0.025 µM; at HLA-A11 (A*1101), 0.026 µM; on A31 (A*3101), 9.19 µM; against A*3301, 1.58 µM.

On to FLIIVLVMIA, for which, in the assay with HLA-A*0201 (HLA-A2.1), the A2.1 came to 0.0003. In addition, the A3.2 with HLA-A3.2 (A*0301) is 0.0093. The molecule further showed an A11 with HLA-A11 (A*1101) of 0.0030.

Turning to RIGILRQRR [Peptide 9017.0113], the values for the IC50 at HLA-A3.2 (A*0301), on HLA-A11 (A*1101) and at A31 (A*3101) were 0.277 µM, 1.14 µM and 0.0076 µM, respectively.

LVFGIDVKEA: the A2.1 with HLA-A*0201 (HLA-A2.1) was determined as 0.0002. In the assay with HLA-A3.2 (A*0301), this molecule yielded an A3.2 below 0.0002. For the same molecule, in the assay with HLA-A11 (A*1101), the A11 was found to be 0.

For FAFTDLTIVY [Peptide 78.0103], the IC50 against HLA-A3.2 (A*0301), at HLA-A11 (A*1101), at A31 (A*3101) and at A*3301 was above 20 µM each time.

As for FLGALKSFLK [Peptide 88.0148], the IC50 against HLA-A3.2 (A*0301) worked out at 0.027 µM; against HLA-A11 (A*1101), 0.12 µM; on A31 (A*3101) it was 0.327 µM.

Take VLYGPANTGK [Peptide 88.0180]: the results for the IC50 against HLA-A3.2 (A*0301), at HLA-A11 (A*1101) and against A31 (A*3101) were 0.0098 µM, 0.025 µM and 1.93 µM, respectively.

With QTRSLTEILK [Peptide 9012.0217], the IC50 at HLA-A3.2 (A*0301) came to 0.25 µM; at HLA-A11 (A*1101), 0.096 µM; against A31 (A*3101), 3.17 µM; against A*3301, 19.8 µM.

As for VTIKIGGQIK [Peptide 1516.02], the IC50 against HLA-A3.2 (A*0301) is 1.11 µM; on HLA-A11 (A*1101) it was 0.184 µM; against A31 (A*3101), 19.3 µM; against A*3301, above 20 µM.

The values above are taken from patent US9340577B2, “HLA binding motifs and peptides and their uses” (priority 1992, dated 2016).
